Measured values: ChEMBL document CHEMBL1201862, “PubChem BioAssay data set” (2004)
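A five-concentration, 48-hour dose response in 96-well plates underlies each endpoint, interpolated linearly between surrounding concentrations. GI50 = concentration required for 50% inhibition of growth.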 Active and inactive are the calls of the source. No stated cut-off is given here; in the data, active = GI50 up to about 1.1 µM and inactive = higher.

Columns and labels:
Assay in all cases: DTP human tumour cell line panel, 48 h
UACC-62 = test system: UACC-62
OVCAR-4 = test system: OVCAR-4
NCI-H23 = test system: NCI-H23
BT-549 = test system: BT-549
RXF 393 = test system: RXF 393
NCI-H460 = test system: NCI-H460
SF-539 = test system: SF-539
KM12 = test system: KM12
MDA-N = test system: MDA-N
786-0 = test system: 786-0
MOLT-4 = test system: MOLT-4
UO-31 = test system: UO-31
OVCAR-5 = test system: OVCAR-5
MDA-MB-231 = test system: MDA-MB-231
COLO 205 = test system: COLO 205
SN12C = test system: SN12C
SNB-19 = test system: SNB-19
SNB-75 = test system: SNB-75
ACHN = test system: ACHN
HCC 2998 = test system: HCC 2998

| SMILES | GI50 (UACC-62) | GI50 (OVCAR-4) | GI50 (NCI-H23) | GI50 (BT-549) | GI50 (RXF 393) | GI50 (NCI-H460) | GI50 (SF-539) | GI50 (KM12) | GI50 (MDA-N) | GI50 (786-0) | GI50 (MOLT-4) | GI50 (UO-31) | GI50 (OVCAR-5) | GI50 (MDA-MB-231) | GI50 (COLO 205) | GI50 (SN12C) | GI50 (SNB-19) | GI50 (SNB-75) | GI50 (ACHN) | GI50 (HCC 2998) |
| --- | --- | --- | --- | --- | --- | --- | --- | --- | --- | --- | --- | --- | --- | --- | --- | --- | --- | --- | --- | --- |
| O=C(O)CCCSc1ccccc1 | > 100 µM (inactive) | > 100 µM (inactive) | > 100 µM (inactive) | > 100 µM (inactive) | > 100 µM (inactive) | > 100 µM (inactive) | > 100 µM (inactive) | > 100 µM (inactive) | > 100 µM (inactive) | > 100 µM (inactive) | > 100 µM (inactive) | > 100 µM (inactive) | > 100 µM (inactive) | > 100 µM (inactive) | > 100 µM (inactive) | > 100 µM (inactive) | > 100 µM (inactive) | > 100 µM (inactive) | > 100 µM (inactive) | > 100 µM (inactive) |
| CC(C)CCC1(O)O[C@H]2C[C@H]3[C@@H]4CCC5CC(=O)C=C[C@]5(C)[C@H]4CC[C@]3(C)[C@H]2[C@@H]1C (stereo not given in full) | 14.6 µM (inactive) | 11.9 µM (inactive) | 4.26 µM (inactive) | 14.3 µM (inactive) | 11.8 µM (inactive) | 10.3 µM (inactive) | 17.6 µM (inactive) | 11.8 µM (inactive) | 13.2 µM (inactive) | 12.3 µM (inactive) | 2.56 µM (inactive) | 16.6 µM (inactive) | 13.1 µM (inactive) | 14.5 µM (inactive) | 14.4 µM (inactive) | 14.4 µM (inactive) | 17.5 µM (inactive) | 14.3 µM (inactive) | 13.7 µM (inactive) | 0.148 µM (active) |
| C/C=C(\C)c1cc(=O)c2c(C)cc3c(c2o1)C(=O)c1c(O)c(C2CC(C)(N(C)C)C(OC(C)=O)C(C)O2)cc(C2CC(N(C)C)C(O)C(C)O2)c1C3=O (stereo not given) | 1.12 µM (inactive) | 1.48 µM (inactive) | 0.971 µM (active) | 1.07 µM (active) | 0.505 µM (active) | 0.00982 µM (active) | 0.574 µM (active) | 1.12 µM (active) | 1.18 µM (inactive) | 0.358 µM (active) | 0.372 µM (active) | 0.948 µM (active) | 1.25 µM (inactive) | 1.14 µM (inactive) | 0.621 µM (active) | 0.817 µM (active) | 1.52 µM (inactive) | 1.64 µM (inactive) | 0.155 µM (active) | 0.0589 µM (active) |
| CCOC(=O)C(NC(=O)CC)(Nc1ccc(F)c(Cl)c1)C(F)(F)F (stereo not given) | 34.4 µM (inactive) | > 100 µM (inactive) |  | > 100 µM (inactive) | > 100 µM (inactive) | > 100 µM (inactive) | > 100 µM (inactive) | 35.8 µM (inactive) | > 100 µM (inactive) | > 100 µM (inactive) | > 74.8 µM (inactive) | > 100 µM (inactive) | > 100 µM (inactive) | > 100 µM (inactive) | > 100 µM (inactive) | > 100 µM (inactive) | > 100 µM (inactive) | > 100 µM (inactive) | > 55.8 µM (inactive) | > 100 µM (inactive) |
| Cc1ccc(NC(=O)C(=O)CC(=O)c2sc(Nc3c(C)cccc3C)nc2C)cc1C | > 100 µM (inactive) | > 100 µM (inactive) | > 100 µM (inactive) | > 100 µM (inactive) | > 100 µM (inactive) | > 100 µM (inactive) | > 100 µM (inactive) | > 100 µM (inactive) | > 100 µM (inactive) | > 100 µM (inactive) | > 100 µM (inactive) | 81.8 µM (inactive) | > 100 µM (inactive) | > 100 µM (inactive) | > 100 µM (inactive) | > 100 µM (inactive) | > 100 µM (inactive) |  | > 100 µM (inactive) | > 100 µM (inactive) |
| CN(C(=O)CC(=O)CP(=O)(c1ccccc1)c1ccccc1)c1ccccc1 | > 100 µM (inactive) | > 100 µM (inactive) | > 100 µM (inactive) | > 100 µM (inactive) | > 100 µM (inactive) | > 100 µM (inactive) | > 100 µM (inactive) | > 100 µM (inactive) | > 100 µM (inactive) | > 100 µM (inactive) | > 100 µM (inactive) | > 100 µM (inactive) |  | > 100 µM (inactive) | > 100 µM (inactive) | > 100 µM (inactive) | > 100 µM (inactive) | > 100 µM (inactive) | > 100 µM (inactive) | > 100 µM (inactive) |
| O=c1c(-c2ccccc2)c(SCCN2CCCC2)n(-c2ccccc2)c(=S)n1-c1ccccc1 | > 100 µM (inactive) | > 100 µM (inactive) | > 100 µM (inactive) | > 100 µM (inactive) | > 100 µM (inactive) | > 100 µM (inactive) | > 100 µM (inactive) | > 100 µM (inactive) | > 100 µM (inactive) | > 100 µM (inactive) | > 100 µM (inactive) |  | > 100 µM (inactive) | > 100 µM (inactive) | > 100 µM (inactive) | > 100 µM (inactive) | > 100 µM (inactive) | 34.4 µM (inactive) | > 100 µM (inactive) | > 100 µM (inactive) |
| CCCCCCCCCCCCCCCCCCNc1nc(=O)n(C2CC(O)C(COP(=O)(O)OCC(COP(=O)(O)OC3C(CO)OC(n4ccc(N)nc4=O)C3O)OCCCCCCCCCCCCCCCCCC)O2)cc1F (stereo not given) | > 100 µM (inactive) | 87.9 µM (inactive) | 32 µM (inactive) | 56.4 µM (inactive) | 14.5 µM (inactive) | 9.2 µM (inactive) | 17.4 µM (inactive) | > 100 µM (inactive) | > 100 µM (inactive) | 14.8 µM (inactive) | 0.675 µM (active) | 28.8 µM (inactive) | 67.1 µM (inactive) | > 100 µM (inactive) | 16.7 µM (inactive) | > 100 µM (inactive) | 14.9 µM (inactive) | 80.5 µM (inactive) | 23.3 µM (inactive) | 14.1 µM (inactive) |
| CSc1c(C#N)c(O)nc(N)c1C(=O)Nc1ccc(Cl)cc1 | 0.853 µM (active) | 31.4 µM (inactive) | 16.8 µM (inactive) | 24.5 µM (inactive) | 23.6 µM (inactive) | 6.32 µM (inactive) | 16.4 µM (inactive) | 7.96 µM (inactive) | 12 µM (inactive) | 7.36 µM (inactive) | 18.8 µM (inactive) | 11.2 µM (inactive) | 33 µM (inactive) | 15.6 µM (inactive) | 10.6 µM (inactive) | 23.8 µM (inactive) | 31.8 µM (inactive) | 37.8 µM (inactive) | 3.18 µM (inactive) | 11.5 µM (inactive) |
| CC1(C)CCC2=C(O1)/C(=N\Nc1ccc(S(N)(=O)=O)cc1)c1ccccc1C2=O | 18.2 µM (inactive) | 5.81 µM (inactive) | 6.55 µM (inactive) | 13.1 µM (inactive) | 5.37 µM (inactive) | 12 µM (inactive) | 10.4 µM (inactive) | 10.5 µM (inactive) | 2.84 µM (inactive) | 7.5 µM (inactive) | 27.4 µM (inactive) | 18.2 µM (inactive) | 18.1 µM (inactive) | 2.56 µM (inactive) | 20.3 µM (inactive) | 11.2 µM (inactive) | 16.2 µM (inactive) | 4.38 µM (inactive) | 19.8 µM (inactive) | 5.25 µM (inactive) |
| CCOc1ccccc1N1CSc2nnc(-c3ccccc3)n2C1 | > 100 µM (inactive) | > 100 µM (inactive) | > 100 µM (inactive) | > 100 µM (inactive) | > 100 µM (inactive) | > 100 µM (inactive) | > 100 µM (inactive) | > 100 µM (inactive) | > 100 µM (inactive) | > 100 µM (inactive) | > 100 µM (inactive) | > 100 µM (inactive) | > 100 µM (inactive) | > 100 µM (inactive) | 68.1 µM (inactive) | > 100 µM (inactive) |  |  | > 100 µM (inactive) | > 100 µM (inactive) |
| Clc1cc2ncn(C3CCCO3)c2cc1Cl (stereo not given) | 40.1 µM (inactive) | > 100 µM (inactive) | > 100 µM (inactive) | 19.5 µM (inactive) | 81.3 µM (inactive) |  | > 100 µM (inactive) | 28.9 µM (inactive) | > 100 µM (inactive) | > 100 µM (inactive) | 54 µM (inactive) | 17.7 µM (inactive) | > 100 µM (inactive) | > 100 µM (inactive) | > 100 µM (inactive) | > 100 µM (inactive) | > 100 µM (inactive) | 26.4 µM (inactive) | 98.9 µM (inactive) | 62.8 µM (inactive) |
| COC(=O)[C@H](Cc1ccccc1)NP(=O)(OCCC#N)OCC1OC(n2cc(C)c(=O)[nH]c2=O)CC1N=[N+]=[N-] (stereo not given in full) | > 100 µM (inactive) | > 100 µM (inactive) | > 100 µM (inactive) | > 100 µM (inactive) | > 100 µM (inactive) | > 100 µM (inactive) |  | > 100 µM (inactive) | > 100 µM (inactive) | > 100 µM (inactive) | > 100 µM (inactive) | > 100 µM (inactive) | > 100 µM (inactive) | > 100 µM (inactive) | > 100 µM (inactive) | > 100 µM (inactive) | > 100 µM (inactive) | > 100 µM (inactive) | > 100 µM (inactive) | > 100 µM (inactive) |
| CN1CC2CC(C1)c1cccc(=O)n1C2 (stereo not given) | > 100 µM (inactive) | > 100 µM (inactive) | > 100 µM (inactive) | > 100 µM (inactive) | > 100 µM (inactive) | > 100 µM (inactive) |  | > 100 µM (inactive) | > 100 µM (inactive) | > 100 µM (inactive) |  | > 100 µM (inactive) | > 100 µM (inactive) | > 100 µM (inactive) | > 100 µM (inactive) | > 100 µM (inactive) | > 100 µM (inactive) | > 100 µM (inactive) | > 100 µM (inactive) | 0.253 µM (active) |
